Assay results: patent US7605265B2, “Heterodimers and methods of using them” (priority 2007, dated 2009)

Legend:
[1] = biological target: T1, acetylcholinesterase (AChE) (Rattus norvegicus, UniProt P37136); test: In vitro inhibition of AChE (cholinesterase assay, Ellman method); assay type: biochemical
T1 construct: from tissue; host or cells: rat brain cortex
T1 sequence (P37136 32-614): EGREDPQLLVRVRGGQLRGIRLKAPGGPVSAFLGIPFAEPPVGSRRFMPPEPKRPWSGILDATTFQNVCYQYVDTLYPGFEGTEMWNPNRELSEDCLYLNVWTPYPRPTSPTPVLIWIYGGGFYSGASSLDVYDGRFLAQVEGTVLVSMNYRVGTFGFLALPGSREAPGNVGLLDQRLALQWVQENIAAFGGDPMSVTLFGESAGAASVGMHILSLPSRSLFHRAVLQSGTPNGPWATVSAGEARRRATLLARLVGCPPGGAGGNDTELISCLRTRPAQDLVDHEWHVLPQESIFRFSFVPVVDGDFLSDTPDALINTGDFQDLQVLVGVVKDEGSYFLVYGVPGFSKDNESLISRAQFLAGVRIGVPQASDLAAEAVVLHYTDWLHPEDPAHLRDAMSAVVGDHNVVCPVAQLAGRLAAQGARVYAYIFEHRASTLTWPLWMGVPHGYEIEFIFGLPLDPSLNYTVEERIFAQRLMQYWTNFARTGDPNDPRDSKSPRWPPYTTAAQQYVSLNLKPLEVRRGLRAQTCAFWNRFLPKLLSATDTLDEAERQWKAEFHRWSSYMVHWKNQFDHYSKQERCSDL
Description: The in vitro inhibition of the enzymes acetylcholinesterase (AChE) and butyrylcholinesterase (BChE) were assessed. BChE, like AChE, breaks down acetylcholine (ACh) but is found in plasma and other organs such as the liver, skin and gastrointestinal tract.
The enzymes, AChE and BChE, used in the inhibition studies were prepared from the cortex and serum of decapitated rats, respectively.

[2] = biological target: T2, NMDA receptor (Rattus norvegicus, UniProt P35439); test: Whole cell patch clamp, NMDA-induced current in hippocampal neurons; assay type: cell-based; conditions: DIV10-14 rat hippocampal neurons, NMDA 50 μM, compound 10 μg/mL; FIG. 1
T2 construct: Hippocampal neurons from embryonic day 18 rats were isolated, trypsinized, plated onto 35-mm plates; endogenous in cells; host or cells: primary hippocampal neurons from embryonic day 18 rats, DIV10-14
Description: The NMDA receptor is a gated ion channel, which allows inflow of current during a nerve impulse. Antagonists to the receptor would prevent the inflow of current. Memantine, a known NMDA antagonist was used as the positive control.
Hippocampal neurons from embryonic day 18 rats were isolated, trypsinized, plated onto 35-mm plates at a density of 3×10^4 cells/plate and cultured in Neurobasal medium (NB) supplemented with B27 nutrient. DIV10-14 rat hippocampal neurons were treated with NMDA (50 μM) in the absence or presence of the novel compounds (Cpd A, B and C) (10 μg/mL). Data is presented as % of NMDA-induced current. DMSO is the solvent control.

[3] = system: transient focal ischemia; test: MCAO (middle carotid artery occlusion model), transient focal ischemia; assay type: in vivo, mice
Description: The MCAO (middle carotid artery occlusion model) was performed to investigate the protective effects of compounds A, B and C on the brain when the brain was exposed to transient focal ischemia (lack of oxygen), emulating brain conditions during a stroke. […] The ability of the novel compounds to protect against the appearance of these neurological deficits was examined using a four-point scale neurological scoring system (Mann Whitney U test). For each of the following observable signs, the distribution of test subjects was noted (with and without treatment with the invention after ischemia): (0) no observable neurological deficits (normal); (1) failure to extend the left forepaw fully (mild); (2) circling to the contralateral side (moderate); and (3) loss of walking and righting reflex (severe). • (ii) The brains of the test subjects slices were sectioned into five pieces and the infarct area and volume of each slice was measured. The % of infarct area in test subjects treated with the invention after ischemia was compared to that of the control group for each brain slice. • (iii) Hemispheric brain swelling and infarct volume (the area of dead tissue caused by inadequate blood supply) was measured for test subjects treated with the invention after ischemia, and compared to that of the control group.
The compounds were administered 5 minutes after ischemia, 5 minutes after reperfusion, or 6 hours after ischemia. FIGS. 5a to 5f show results for the heterodimers compound B, C or A respectively, when administered 5 minutes after ischemia or reperfusion. FIGS. 5g and 5h show the results when the novel heterodimers were administered 6 hours after ischemia.
Compound B was administered at 5 minutes after ischemia. Distribution of neurological scores based on a four-point scale neurological scoring system (Mann Whitney U test): (0) no observable neurological deficits (normal); (1) failure to extend the left forepaw fully (mild); (2) circling to the contralateral side (moderate); and (3) loss of walking and righting reflex (severe).
The brain was sectioned into five pieces, each 2-mm thick. The infarct area of each posterior surface was analyzed by an image analysis program. The percentage of infarct area and volume were calculated and presented as the percentage of the infarct area of the contralateral hemisphere to eliminate the contribution of edema to the ischemic lesion.
The infarct area of each posterior surface was analyzed by an image analysis program. Hemispheric brain swelling was calculated as follows (ipsilateral volume−contralateral volume)/contralateral volume×100%.

[4] = 0.005 μg/kg, 6 hours after ischemia
[5] = 0.05 μg/kg, 5 minutes after ischemia
[6] = 0.05 μg/kg, 6 hours after ischemia
[7] = 0.5 μg/kg, 5 minutes after ischemia

O=c1ccc2c([nH]1)CCCC2NCCCCCCCNc1c2c(nc3cc(Cl)ccc13)CCCC2 (centres unmarked) [Compound B]
times more potent than bis(7)-tacrine ([1]; AChE inhibition): ~1885
times more potent than tacrine ([1]; AChE inhibition): ~20471
Selectivity AchE* ([1]; IC50 (BChE)/IC50 (AChE)): 4563
IC50 ([1]; enzyme prepared from rat cortex): 6.8 ± 3 pM
NMDA-induced current [2]: decreased NMDA-induced current in hippocampal neurons
% Infarct area in brain slice # 1 [3, 4]: 11.9 ± 4.3%
% Infarct area in brain slice # 2 [3, 4]: 43.4 ± 6.5%
% Infarct area in brain slice # 3 [3, 4]: 40.1 ± 4.7 %
% Infarct area in brain slice # 4 [3, 4]: 24.3 ± 7.5%
% Infarct area in brain slice # 5 [3, 4]: −1.4 ± 1.0%
Hemispheric swelling (%) [3, 4]: 7.3 ± 1.2%
Infarct volume (%) [3, 4]: 28.5 ± 3.4%
Observed Neurological Deficits Mean ± SEM [3, 4]: 1.2 ± 0.2
Observed Neurological Deficits, score 0 (number of animals) [3, 4]: 0
Observed Neurological Deficits, score 1 (number of animals) [3, 4]: 7
Observed Neurological Deficits, score 2 (number of animals) [3, 4]: 2
Observed Neurological Deficits, score 3 (number of animals) [3, 4]: 0
n (dead/total): dead/total [3, 4]: 9 (0/9)
% Infarct area in brain slice # 1 [3, 5]: 11.5%
% Infarct area in brain slice # 2 [3, 5]: 42.6 ± 4.8 %
% Infarct area in brain slice # 3 [3, 5]: 40.0 ± 6.6 %
% Infarct area in brain slice # 4 [3, 5]: 34.0%
% Infarct area in brain slice # 5 [3, 5]: 0.1%
Hemispheric swelling (%) [3, 5]: 6.5 ± 1.5%
Infarct volume (%) [3, 5]: 31.2 ± 4.6 %
Observed Neurological Deficits Mean ± SEM [3, 5]: 1.1 ± 0.1
Observed Neurological Deficits, score 0 (number of animals) [3, 5]: 0
Observed Neurological Deficits, score 1 (number of animals) [3, 5]: 8
Observed Neurological Deficits, score 2 (number of animals) [3, 5]: 1
Observed Neurological Deficits, score 3 (number of animals) [3, 5]: 0
n (dead/total): dead/total [3, 5]: 9 (2/11)
infarct area in brain slices (in words) ([3]; 0.05 μg/kg, 5 minutes after ischemia, FIG. 5a): reduced the infarct area in brain slices #2 and #3
% Infarct area in brain slice # 1 [3, 6]: 15.7 ± 2.9%
% Infarct area in brain slice # 2 [3, 6]: 50.5 ± 7.2%
% Infarct area in brain slice # 3 [3, 6]: 41.7 ± 6.0%
% Infarct area in brain slice # 4 [3, 6]: 25.2 ± 8.2%
% Infarct area in brain slice # 5 [3, 6]: −1.3 ± 1.7%
Hemispheric swelling (%) [3, 6]: 7.0 ± 1.5%
Infarct volume (%) [3, 6]: 31.1 ± 4.8%
Observed Neurological Deficits Mean ± SEM [3, 6]: 1.4 ± 0.2
Observed Neurological Deficits, score 0 (number of animals) [3, 6]: 0
Observed Neurological Deficits, score 1 (number of animals) [3, 6]: 5
Observed Neurological Deficits, score 2 (number of animals) [3, 6]: 3
Observed Neurological Deficits, score 3 (number of animals) [3, 6]: 0
n (dead/total): dead/total [3, 6]: 8 (3/12)
Observed Neurological Deficits Mean ± SEM [3, 7]: 1.5 ± 0.3
Observed Neurological Deficits, score 0 (number of animals) [3, 7]: 0
Observed Neurological Deficits, score 1 (number of animals) [3, 7]: 2
Observed Neurological Deficits, score 2 (number of animals) [3, 7]: 2
Observed Neurological Deficits, score 3 (number of animals) [3, 7]: 0
n (dead/total): dead/total [3, 7]: 4 (4/8)
infarct volume and hemispheric swelling (in words) ([3]; 5 minutes after ischemia (compound A: 0.05 and 0.1 mg/kg), FIG. 5b, 5f): reduces infarct volume but not hemispheric swelling
infarct area (in words) ([3]; 6 hours after ischemia, FIG. 5g): improvement in the infarct area
infarct volume (in words) ([3]; 6 hours after ischemia, FIG. 5h): decreases infarct volume
neurological deficits induced by ischemia (in words) ([3]; administered 5 minutes after ischemia): reduced neurological deficits induced by ischemia
neurological deficits (in words) ([3]; administration 6 hours after ischemia): reduced neurological deficits
